This is an account of results in US10919889B2, “Chiral heterocyclic compound with hedgehog pathway antagonist activity, method and use thereof” (SUZHOU KINTOR PHARMACEUTICALS, INC., priority 2016, dated 2021).

Read-outs that look alike come from different tables or passages of the source.

The term IC50 denotes the concentration that inhibits the measured activity by half. One may read the clearance as the volume of plasma or blood freed of the substance per unit of time. The term Tmax denotes the time at which the peak concentration occurs. The term Kd denotes a measure of binding affinity in units of concentration. Low readings indicate tighter binding, high ones weaker binding.

In data set [1] the test system is Hh signaling pathway. The note with it: previous patent; read-out: IC50 of NIH3T3-GRE-Luc, reported in WO2014113191A1; cited from earlier work.
The nature of data set [2]: Oxidative metabolism found in pharmacokinetic studies. To be noted: benzylic oxidation at the C-5 methylene group.
Data set [3] is described as follows: Rat pharmacokinetics experiments. In kind it is in vivo, Sprague-Dawley rats. The note with it: for AUC(0-t): read-out: Area under the curve AUC0-24 h; for bioavailability: po. As for the experimental part:
Male Spraguee-Dawley rats (body weight: 220 g˜250 g) were purchased from Slac Laboratory Animals (Shanghai). […] Blood samples were taken through the posterior orbital vein and the blood samples were placed in a tube containing EDTA (as an anticoagulant) and stored in a −80° C. environment after centrifugation with a refrigerated centrifuge. Blood sample (at an amount of folds of 25 μL) was taken and cold acetonitrile containing the internal standard (100 μL) was added. Sample was centrifuged for 10 minutes to precipitate the plasma protein. Finally, supernatant (10 μL) was injected into the LC-MS/MS system for analysis.
LC-MS/MS analysis method: All samples were analyzed by LC-MS/MS system of API4000 QTRAP mass spectrometer equipped with LC-20AD and CBM-20A controllers, DGU-20A solvent degasser and SIL-20A autosampler (Japan Shimadzu, Colombia, Md., USA). A Bona Aeger Venusil XBP C18 column (50×2.1 mm; filler 5 micron particle size) was used for HPLC separation. The column temperature was maintained at 40° C. The flow rate was 0.3 mL/min and the total run time was 6 minutes.
For the quantification of MS/MS, the API4000 QTRAP mass spectrometer was operated in an ESI positive mode with multiple reaction monitoring (MRM). All compounds and internal standards were set to be monitored during a residence time of 100 milliseconds. The other MS/MS parameters were set as follows: atomization gas (GS1) at 30 psi, 551b turbine pressure, 4500V ion spray voltage, 500° C. ion source temperature. For the selected ion transitions, each analyte was tested at the optimal sensitivity of the cluster potential (DP) and the collision energy (CE). Finally, the data was collected and processed using AB SCIEX Analysist 1.5.2 data collection and integration software.
Test subjects, Sprague-Dawley rats (body weight from about 220 g to about 250 g), were purchased from Slac Laboratory Animals (Shanghai, China). All compounds tested at 1 mg/mL concentration, either intravenous injected at a tail vein at 1 mL/kg dosage for one group of test subjects or administered orally at a dose of 10 mL/kg in another group of test subjects. Then aliquots of blood samples were collected by retro-orbital venous plexus puncture at time intervals after the injection/administration. The blood samples were kept in tubes containing EDTA, centrifuged and stored at −80° C. before analysis. Blank plasma was collected by the same method before rats were treated with compounds. Plasma samples for analysis were obtained by removing about 25 μL from the saved blood sample; adding cold acetonitrile (about 100 μL) as internal standard; centrifuged for 10 minutes to precipitate plasma proteins; and collect about 10 μL of the upper clear solution for analysis done by an LC-MS/MS system.
All samples were analyzed by an API 4000 QTRAP® LC/MS/MS System equipped with Shimadzu LC-20AD pump, Shimadzu CBM-20A controller, SIL-20A autosampler and DGU-20A degasser (Shimadzu, Columbia, Md., USA). A Venusil XBP C18 HPLC Column (2.1×50 mm, 5 μm) (Bonna-Agela Technologies) was used for HPLC separation at isocratic temperature of 40° C. Flow rate was kept at 0.3 mL/min and the total run time was kept at 6 minutes.
Quantification by MS/MS is done using the above-described API 4000 QTRAP mass spectrometer equipped with multiple reaction monitoring (MRM) and positive electrospray ionization (ESI+) modes. All compounds and internal standard were detected at […] of about 100 milliseconds. Other parameters for MS/MS are shown below: Ion Source Gas 1 (GS1) at 30 psi, turbine pressure at 55 pounds, ion spray voltage at 4500 V, and ion source temperature at 500° C. MRM measurements of the analytes were performed using declustering potential (DP) and […] values optimized for each analyte. Finally, all of the operations, the acquisition and analysis of data were controlled by Analyst (version 1.5.2, AB Sciex, USA).

The target of data set [4] is T1, WT-Smo (Homo sapiens, UniProt Q99835).
T1 construct: HA; expressed in transfected cells
T1 sequence (Q99835 28-787): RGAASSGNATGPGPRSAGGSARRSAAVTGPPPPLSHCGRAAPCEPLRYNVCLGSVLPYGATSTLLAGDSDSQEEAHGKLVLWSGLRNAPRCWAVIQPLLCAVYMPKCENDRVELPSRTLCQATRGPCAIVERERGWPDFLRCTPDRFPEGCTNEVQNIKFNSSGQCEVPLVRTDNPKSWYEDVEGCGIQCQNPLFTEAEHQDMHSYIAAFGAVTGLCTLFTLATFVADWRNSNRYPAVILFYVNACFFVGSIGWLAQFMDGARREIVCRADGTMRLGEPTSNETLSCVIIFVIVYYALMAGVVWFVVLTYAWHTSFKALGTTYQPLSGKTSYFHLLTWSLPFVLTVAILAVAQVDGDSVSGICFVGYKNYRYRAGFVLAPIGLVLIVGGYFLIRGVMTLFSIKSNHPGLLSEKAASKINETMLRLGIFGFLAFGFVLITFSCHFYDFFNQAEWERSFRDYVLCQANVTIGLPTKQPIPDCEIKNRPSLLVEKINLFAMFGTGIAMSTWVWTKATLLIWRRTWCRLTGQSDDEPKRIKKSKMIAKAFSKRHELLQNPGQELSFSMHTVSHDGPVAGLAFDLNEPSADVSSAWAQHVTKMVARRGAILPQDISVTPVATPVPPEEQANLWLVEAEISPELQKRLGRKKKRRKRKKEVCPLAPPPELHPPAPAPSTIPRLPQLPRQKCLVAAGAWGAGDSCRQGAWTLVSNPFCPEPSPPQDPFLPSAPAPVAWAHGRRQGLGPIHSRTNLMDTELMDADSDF
Kind of data set: Bodipy-Cyclopamine binding assay. To be noted: used in the Cheng-Prusoff equation. As for the experimental part: Bodipy-Cyclopamine binding assay is a fluorescence based assay used to analysis the binding of Smo agonists. Hek293-SMO stable clones were established by puromycin (1 ug/ml, Invitrogen) selection after transfection with SMO-HA-pLVX plasmid Hek293-SMO cells were maintained in complete culture medium (DMEM with 4 mM L-Gln, 1.5 g/L sodium bicarbonate and 4.5 g/L glucose supplemented with 100 ug/ml hygromycin and 10% FBS). The expression of SMO was validated with western blot and cell immunofluorescence. Bodipy-Cyclopamine was purchased from Toronto Research Chemicals and dissolved in methanol.
Hek293-SMO cells were plated in 96-well-plate (3340, Corning), the final cell concentration is 15,000 cells/well in 100 ul 1% serum-containing DMEM. The plates were incubated in 37 degree for additional 48 hours.
Hek293-SMO plate were washed with PBS and fixed with 4% paraformaldehyde (PFA)/PBS for 20 min at room temperature. After removing the PFA buffer, the cells were incubated with DAPI/PBS (5 ug/mL) for 10 min and followed by twice wash with PBS. […] The fluorescence images were automatically captured and analyzed by a high content fluorescence imaging system (Arrayscan VTI, Thermo). […] IC50 values were calculated with GraphPad Prism software using the sigmoidal dose-response function. The Ki was calculated following the Cheng-Prusoff equation, as Ki=IC50/[1+[bodipy-cyclopamine]/Kd)].

As to `Cc1cnc(-c2cc(N3CCc4nc(N5CCC(O)CC5)ncc4C3)ncc2Cl)c(C)c1` [Compound A-55, reference compound], the IC50 in data set [1] was 5.5 nM. Moreover, the “susceptibility to oxidative metabolism (in words)” value in data set [2] was “easy to metabolized via benzylic oxidation”. For the same compound, the AUC0-24 h was found to be 1780 ng·h/mL in data set [3] (I.V., 2 mg/kg) and 5540 ng·h/mL in data set [3] (P.O., 10 mg/kg). Also, in data set [3] (I.V., 2 mg/kg), the CL is 18.6 mL/min/kg. Further, the t1/2 in data set [3] (I.V., 2 mg/kg) is listed as 1 h. For the same compound, the Vd in data set [3] (male, Sprague-Dawley, plasma, intravenous injection, 2 mg/kg, read-out: Apparent volume of distribution Vd, ss) is 1.7 L/kg. The AUC(0-t) in data set [3] (male, Sprague-Dawley, plasma, intravenous injection, 2 mg/kg) came out at 1780 ng·h/mL; in data set [3] (male, Sprague-Dawley, plasma, oral, 10 mg/kg), 5540 ng·h/mL. Moreover, in data set [3] (male, Sprague-Dawley, plasma, intravenous injection, 2 mg/kg, read-out: Clearance CL), the clearance amounted to 18.6 mL/min/kg. Moreover, the half-life in data set [3] (male, Sprague-Dawley, plasma, intravenous injection, 2 mg/kg, read-out: Half-life t1/2 (converted)) is 1 h. In addition, in data set [3] (male, Sprague-Dawley, plasma, oral, 10 mg/kg, read-out: Maximum plasma concentration Cmax), the Cmax is 2180 ng/mL. Besides, the Tmax in data set [3] (male, Sprague-Dawley, plasma, oral, 10 mg/kg, read-out: Peak time Tmax) was 0.5 h. The bioavailability in data set [3] (male, Sprague-Dawley, plasma, 10 mg/kg, P.O. 10 mg/kg vs I.V. 2 mg/kg, read-out: F %) came to 62%; in data set [3] (male, Sprague-Dawley, plasma, 10 mg/kg, oral 10 mg/kg vs intravenous 2 mg/kg, read-out: Bioavailability F %), 62%; in data set [3] (male, Sprague-Dawley, plasma, 10 mg/kg, oral, read-out: bioavailability), 62%.
Compound `CC1=C2CC3C(CC=C4C[C@@H](O)CCC43C)C2CCC12O[C@@H]1CC(C)CN(CCNC(=O)CCCCCNC(=O)CCC3=[N+]4C(=Cc5c(C)cc(C)n5[B-]4(F)F)C=C3)C1C2C` (some centres unmarked) [bodipy-cyclopamine] came in with a Kd in data set [4] of 3.5 ± 0.8 nM.
